Assays:
[1] = xn = mol fraction of the nth substance listed; conditions: 101.33 kPa, Liquid
[2] = 101.33 kPa, Liquid

CCc1ccccc1 [ethylbenzene] + CCO
[1]
Conditions	mass density, 298.15 K [kg/m3]	mass density, 308.15 K [kg/m3]	speed of sound, 298.15 K [m/s]	speed of sound, 308.15 K [m/s]	viscosity, 298.15 K [mPa·s]	viscosity, 308.15 K [mPa·s]
x1 = 0.0712	795	789.6	1170	1133	1.026	0.856
x1 = 0.1551	807.2	801.6	1185	1155	0.947	0.788
x1 = 0.2404	817.6	811.7	1203	1173	0.864	0.719
x1 = 0.352	827	820	1228	1195	0.789	0.656
x1 = 0.4053	836	823.2	1235	1203	0.764	0.629
x1 = 0.553	842.3	835.8	1261	1223	0.684	0.587
x1 = 0.7382	853.6	842.8	1278	1250	0.639	0.548
x1 = 0.8805	858.5	851.2	1291	1266	0.623	0.544
x1 = 1	862	855.5	1312	1276	0.628	0.553

CCCCO [butan-1-ol]
[2]
Conditions	mass density [kg/m3]	speed of sound [m/s]	viscosity [mPa·s]
298.15 K	807.7	1238	2.564
308.15 K	800.1	1211	2

CCO [ethanol] + CCc1ccccc1
[1], x2 = 0
Conditions	mass density [kg/m3]	speed of sound [m/s]	viscosity [mPa·s]
298.15 K	785.5	1160	1.117
308.15 K	776.3	1112	0.935

CCCO [propan-1-ol] + CCc1ccccc1
[1], x2 = 0
Conditions	mass density [kg/m3]	speed of sound [m/s]	viscosity [mPa·s]
298.15 K	799.6	1213	2.042
308.15 K	792	1182	1.565

CCc1ccccc1 [ethylbenzene] + CCCO
[1]
Conditions	mass density, 298.15 K [kg/m3]	mass density, 308.15 K [kg/m3]	speed of sound, 298.15 K [m/s]	speed of sound, 308.15 K [m/s]	viscosity, 298.15 K [mPa·s]	viscosity, 308.15 K [mPa·s]
x1 = 0.109	811.4	803.7	1227	1194	1.543	1.226
x1 = 0.1677	817.3	807.1	1233	1202	1.375	1.098
x1 = 0.3777	828.5	823.5	1257	1224	0.976	0.809
x1 = 0.5006	837.9	833.1	1266	1233	0.839	0.702
x1 = 0.6429	845.1	839	1277	1245	0.712	0.616
x1 = 0.8074	853.3	844.3	1287	1258	0.638	0.562
x1 = 0.8951	857	850	1299	1264	0.606	0.542
x1 = 1	862	855.5	1312	1276	0.628	0.553

CCCCO [butan-1-ol] + CCc1ccccc1
[1], x2 = 0
Conditions	mass density [kg/m3]	speed of sound [m/s]	viscosity [mPa·s]
298.15 K	807.7	1238	2.564
308.15 K	800.1	1211	2

CCO [ethanol]
[2]
Conditions	mass density [kg/m3]	speed of sound [m/s]	viscosity [mPa·s]
298.15 K	785.5	1160	1.117
308.15 K	776.3	1112	0.935

CCc1ccccc1 [ethylbenzene] + CCCCO
[1]
Conditions	mass density, 298.15 K [kg/m3]	mass density, 308.15 K [kg/m3]	speed of sound, 298.15 K [m/s]	speed of sound, 308.15 K [m/s]	viscosity, 298.15 K [mPa·s]	viscosity, 308.15 K [mPa·s]
x1 = 0.1035	816.7	808.9	1246	1217	1.985	1.569
x1 = 0.205	821.2	815.3	1256	1223	1.565	1.253
x1 = 0.3221	828.1	822	1264	1229	1.236	–
x1 = 0.365	831.1	824.5	1267	1231	1.147	0.941
x1 = 0.5071	839.6	832.1	1277	1239	0.916	0.765
x1 = 0.6494	845.7	839.1	1288	1249	0.764	0.651
x1 = 0.8136	854.5	846	1301	1262	0.693	0.577
x1 = 0.91	858.6	852.6	1307	1268	0.649	0.566
x1 = 1	862	855.5	1312	1276	0.628	0.553

CCc1ccccc1 [ethylbenzene]
[2]
Conditions	mass density [kg/m3]	speed of sound [m/s]	viscosity [mPa·s]
298.15 K	862	1312	0.628
308.15 K	855.5	1276	0.553

CCCO [propan-1-ol]
[2]
Conditions	mass density [kg/m3]	speed of sound [m/s]	viscosity [mPa·s]
298.15 K	799.6	1213	2.042
308.15 K	792	1182	1.565
